According to patent US5885834A, “Antisense oligodeoxynucleotide against phosphodiesterase” (priority 1997, dated 1999):
Like-named read-outs stand apart in the source and are kept apart here.

What was measured:
Format in all cases: cell-based, human
[1] = tested on: PDE4B mRNA in RPMI 8392 cells; assay: RT-PCR amplification of PDE4 subtype transcripts in RPMI 8392 cells; conditions: agent alone
[2] = tested on: PDE4D3 mRNA in RPMI 8392 cells; assay: as above; conditions: agent alone
PDE4 mRNA in HPBL = assay: RT-PCR amplification of transcripts in HPBL
Description: (§1) HPBL were purified from 30-60 ml of blood obtained from normal donors by defribrination with glass beads to remove platelets, incubated with tetracarbonyl iron to minimize monocyte contamination and centrifuged on Ficoll-Hypaque density gradients to achieve cell separation. […] For this stimulation, cells were placed in 25 cm^2 flasks in a total volume of 10 ml/flask.
(§2) First strand cDNA was synthesized from the RNA using a Superscript Preamplification System from GIBCO/BRL. […] To this was added 10 mM Tris/HCl pH 8.4, 50 mM KCl, 2.5 mM MgCl2, 10 mM DTT, 500 μM each of dGTP, dATP, dCTP and dTTP in a total volume of 20 μl, and the resultant mix was incubated at room temperature for 5 min. Superscript II reverse transcriptase (2 U) was then added and incubation continued at 42° C. for 50 min. at 70° C. for 15 min. RNase H (2 U) was then added and incubation carried out for 20 min. at 37° C. PCR amplification was carried out in a total volume of 50 μl using 2 μl of cDNA, 20 mM Tris/HCl pH 8.4, 50 mM KCl, 1.5 mM MgCl2, 200 μM each of dGTP, dATP, dCTP and dTTP and 0.4 μM of sense and antisense primers specific for different isogenes of human PDE4, human β-actin and human PDE1B1, as described hereinafter. The PCR reaction mixture was incubated at 94° C. for 5 min. followed by the addition of 0.5 μl Taq DNA polymerase (5 U/μl, GIBCO/BRL). PCR amplification was then carried out for 35 cycles at 94° C. for 1 min., 58° C. for 1 min., 72° C. for 1 min., followed by a final extension at 72° C. for 10 min., except where indicated otherwise. A sample of amplified DNA (10 μl) was resolved on a 1.5% agarose gel containing 0.5 μg/ml ethidium bromide and visualized and photographed under UV light. […] PCR amplification with primers specific for human β-actin were run for every cell sample, as positive controls to ensure that the isolated RNA was not degraded, and for normalization to verify that relatively equal amounts of RNA were used for the first strand cDNA synthesis reactions.
(§3) Primers specific for PDE4A, PDE4B, PDE4C, and PDE4D3 were synthesized. […] M37744; HSPDE4A4B (PDE-46), GenBank no. L20965; HSPDE4A4C (h6.1), GenBank no. U18087. […] U88712 and U88713.

RPMI 8392 cells = assay: Apoptosis by endonuclease-digested DNA (DNA laddering) on agarose gels; conditions: Homo sapiens, read-out: Concentrations at which apoptosis was induced
Description: The preferred method for testing the ability of AS ODN to induce apoptosis as determined by detection of endonuclease digested DNA on agarose gels employs the following sequence:
(2) Cells are grown to ≈10^6 /ml, collected by centrifugation for 5 min. at 300×g (1000 rpm in an IEC Model K centrifuge), resuspended in growth medium to 10^6 cells/ml, and placed in a 24 well tissue culture plate at 1 ml/well. The cell volumes are kept to a minimum (i.e., -1 ml), in order to reduce the amount of ODN needed. The fetal bovine serum used in the growth medium for this step is heat-inactivated at 65° C. for 1 hr. to minimize serum nuclease activity.
(4) Cells are then incubated for varying times, usually 1-3 days, following which the DNA is isolated.
The supernatant is aspirated down to ≈50 μl of volume and the cell pellet is resuspended in this remaining small volume.
(6) About 400 μl of cold cell lysis buffer (50 mM Tris-HCl, pH 7.5, 10 mM EDTA, 1% Triton X-100) is then added.
(9) The upper, aqueous phase is transferred to a fresh microfuge tube and 250 μl of phenol and 250 μl of chloroform are added, the mixture gently vortexed for 5 sec., and centrifuged at 16,650×g for 5 min.
(10) The upper, aqueous phase is again transferred to a fresh microfuge tube and 500 μl of chloroform is added, followed by gentle vortexing and centrifugation at 16,650×g for 3 min.
(11) The upper, aqueous phase is again transferred to a fresh microfuge tube, 3M sodium acetate (pH 5.2) is added to a final concentration of 0.3M, and 2.5 volumes of ice cold 100% ethanol is added. The solution is left overnight at -20° C. to precipitate the DNA.
(12) The DNA is collected by centrifugation at 16,650×g for 15 min., the supernatant decanted, and the pellet air dried for ≈30-60 min. at room temperature. The DNA pellet is then dissolved in 50 μl of pH 8.0 TE buffer at room temperature overnight.
(13) One μl of a 4 mg/ml solution of DNase-free RNase A is then added to the DNA and incubation is carried out at 37° C. for 30 min. This step is necessary to prevent contaminating RNA from obscuring the gel.
(14) Thirty μl of DNA solution is then mixed with 6 μl of 6× loading buffer and run on a 2% agarose gel, containing 0.5 μg/ml ethidium bromide, in 0.5× TBE buffer (45 mM Tris-borate, 1 mM EDTA, pH 8.0) at ≈50 V for ≈1.5 hr. The 6× loading buffer used is 0.25% xylene cyanol and 30% glycerol. The use of bromophenol blue is omitted for this analysis because it tends to obscure the visualization of the DNA ladder pattern.
(15) The gel is then visualized and photographed under UV light.
The effect of pharmacological inhibition of each of these PDE activities on induction of apoptosis in RPMI 8392 cells was tested, using the appearance of oligonucleosome length fragments of endonuclease digested DNA as a measure of apoptosis.
Markers (lane 1 in both gels) are 1 kb DNA ladder size markers from GIBCO/BRL.
Cells (10^6) were collected by centrifugation at 670×g for 5 min. The cell pellets were rinsed once with 0.2M dibasic sodium phosphate and lysed in 300 μl of lysis buffer (50 mM Tris/HCl pH 7.5, 10 mM EDTA, 1% V/V Triton X-100) for 20 min on ice. Proteinase K was added to 0.5 mg/ml and DNase-free RNase was added to 50 μg/ml and the extract incubated at 37° C. for 1 hr. DNA was then extracted in phenol/chloroform (1:1) and chloroform (1:1) and precipitated in 2.5 volumes of ethanol. The extracted DNA was electrophoresed on 2% agarose gels, the gels stained with 0.5 μg/ml ethidium bromide and photographed under UV light.
Experiments were conducted to determine if inhibition of the expression of the gene for PDE1B1 could induce apoptosis.

PDE4D3 mRNA in HPBL = assay: RT-PCR amplification of transcripts in HPBL; conditions: 10 μg/ml PHA-P, more prominent at 48 hr than 18 hr
Description: as §1, §2, §3

PDE4A mRNA in HPBL = assay: RT-PCR amplification of transcripts in HPBL; conditions: 10 μg/ml PHA-P, 18 and 48 hr
Description: as §1, §2, §3

[3] = tested on: PDE4D1 and D2 mRNA in HPBL; assay: RT-PCR amplification of transcripts in HPBL; conditions: 10 μg/ml PHA-P, 18 and 48 hr
Description: as §1, §2, §3

PDE1B1 mRNA in HPBL = assay: RT-PCR amplification of transcripts in HPBL
Description: as §1, §2, §3

isolated, quiescent HPBL = assay: TUNEL assay of apoptosis, flow cytometry, quiescent HPBL; conditions: mitogen PHA added to HPBL in culture
Source text: Nevertheless, the effects of AS ODNs on HPBL can still be tested by quantifying and comparing the percentage of cells undergoing apoptosis in the presence and absence of the AS ODN. Apoptosis detected by examining endonuclease-digested DNA, commonly referred to as the DNA laddering technique, has been employed and the results therefrom are set forth in FIG. 5. However, we prefer to use a TUNEL assay, an acronym for terminal deoxynucleotidyl transferase (TdT)-mediated dUTP nick end labeling, which more readily allows quantitation of the percentage of cells undergoing apoptosis. The principle of the TUNEL assay is that endonuclease digestion during apoptosis results in the formation of 3'-OH ends in the digested DNA. The digested DNA in the apoptotic cells can then be labeled with fluorescein by catalytically incorporating fluorescein-12-dUTP at the 3'-OH ends using the TdT enzyme. Fluorescence can then be quantitated by flow cytometry, using a fluorescence activated cell sorter (FACS), which would give a measure of the number of cells undergoing apoptosis. An example of the appearance of a population of fluorescein labeled apoptotic cells, as evidenced by flow cytometry, following TUNEL assay labeling of the cells, is shown in FIGS. 6A-C. Cells were then cultured for 3 days with 10 μg/ml PHA-P (Sigma), in the absence of any ODN (FIG. 6A), in the presence of 30 μM NS ODN (FIG. 6B), or in the presence of 30 μM AS ODN (FIG. 6C). Cells were then collected by centrifugation and fluorescein labeled by the TUNEL assay using the Promega Apoptosis Detection System. Flow cytometry was performed on a Beckton Dickinson FACScan by the FACS facility.
The procedure for analyzing apoptosis by the TUNEL method uses either an In Situ Cell Death Kit, Fluorescein from Boehringer Mannheim or an Apoptosis Detection System, Fluorescein from Promega and follows the protocols of the manufacturers. The data in FIGS. 6 and 7 was obtained using the manufacturer's protocol for the Apoptosis Detection System, Fluorescein from Promega. […]

CC(C)Cn1c(=O)n(C)c(=O)c2[nH]cnc21 [IBMX, 1-methyl-3-isobutylxanthine]
Expression of PDE4B mRNA, compared with dbcAMP plus IBMX [1]: reproduced
Expression of PDE4D3 mRNA, compared with dbcAMP plus IBMX [2]: reproduced
PDE4 mRNA expression, compared with dbcAMP plus IBMX (PDE4 mRNA in HPBL; IBMX (0.1 mM) alone): same effects

CCCCOc1cc(CC2CNC(=O)N2)ccc1OC (centres unmarked) [RO 20-1724]
minimal effective concentration (RPMI 8392 cells; 24 h): ≥ 10 µM

CCCC(=O)Nc1ncnc2c1ncn2[C@@H]1O[C@@H]2COP(=O)(O)O[C@H]2[C@H]1OC(=O)CCC [dbcAMP, dibutyryl cAMP]
Expression of PDE4B mRNA, compared with dbcAMP plus IBMX [1]: reproduced
Expression of PDE4D3 mRNA, compared with dbcAMP plus IBMX [2]: reproduced
PDE4 mRNA expression, compared with dbcAMP plus IBMX (PDE4 mRNA in HPBL; dbcAMP (1 mM) alone): same effects

COc1ccc(C2CNC(=O)C2)cc1OC1CCCC1 (centres unmarked) [rolipram]
minimal effective concentration (RPMI 8392 cells; RPMI 8392 cells, culture for 24 hr): ≥ 10 µM

phytohemagglutinin [PHA]
Expression of PDE4D3 mRNA (PDE4D3 mRNA in HPBL): huge induction
Expression of PDE4A mRNA (PDE4A mRNA in HPBL): striking induction
Expression of PDE4D1 and D2 mRNA [3]: some increase in the expression
Expression of the mRNA for PDE1B1 (PDE1B1 mRNA in HPBL; 10 μg/ml PHA-P, 18 and 48 hr): readily apparent
PDE1B1 RT-PCR cDNA fragment (≈333 nt) (PDE1B1 mRNA in HPBL; PHA for 3 days): show a cDNA fragment of the predicted size
Spontaneous apoptosis of HPBL in culture (TUNEL) (isolated, quiescent HPBL): prevented the HPBL from undergoing spontaneous apoptosis
